Reference: the kinase profiling compilation of Christmann-Franck et al. (2016)

Experiments:
Assay in all cases: KINOMEscan competition binding
Conditions in all cases: compound 1.0 µM
[1] = target: ABL2 (human) (UniProt P42684)
[2] = target: AURKA (human) (UniProt O14965)
[3] = target: CAMK2D (human) (UniProt Q13557)
[4] = target: CAMK4 (human) (UniProt Q16566)
[5] = target: CDK13 (human) (UniProt Q14004)
[6] = target: DDR2 (human) (UniProt Q16832)
[7] = target: DSTYK (human) (UniProt Q6XUX3)
[8] = target: EPHA4 (human) (UniProt P54764)
[9] = target: EPHB1 (human) (UniProt P54762)
[10] = target: ERBB3 (human) (UniProt P21860)
[11] = target: HCK (human) (UniProt P08631)
[12] = tested on: KIT (human), P10721 [D816H]
[13] = tested on: KIT (human), P10721 [V559D/T670I]
[14] = target: LIMK2 (human) (UniProt P53671)
[15] = target: MAP2K7 (human) (UniProt O14733)
[16] = target: MAP4K4 (human) (UniProt O95819)
[17] = target: MARK1 (human) (UniProt Q9P0L2)
[18] = target: MST1R (human) (UniProt Q04912)
[19] = target: MYLK2 (human) (UniProt Q9H1R3)
[20] = target: NIM1 (human) (UniProt Q8IY84)
[21] = target: PRKACA (human) (UniProt P17612)
[22] = target: PRKD1 (human) (UniProt Q15139)
[23] = target: PRKG1 (human) (UniProt Q13976)
[24] = target: PRKG2 (human) (UniProt Q13237)
[25] = target: PTK2B (human) (UniProt Q14289)
[26] = target: PTK6 (human) (UniProt Q13882)
[27] = tested on: RET (human), P07949 [V804M]
[28] = target: ROS1 (human) (UniProt P08922)
[29] = target: RPS6KA1 KD2 (human) (UniProt Q15418)
[30] = target: SIK1 (human) (UniProt P57059)
[31] = target: STK11 (human) (UniProt Q15831)
[32] = target: STK17B (human) (UniProt O94768)
[33] = target: STK32A (human) (UniProt Q8WU08)
[34] = target: TAOK1 (human) (UniProt Q7L7X3)
[35] = target: TEK (human) (UniProt Q02763)
[36] = target: TIE1 (human) (UniProt P35590)
[37] = target: TXK (human) (UniProt P42681)
[38] = target: TYRO3 (human) (UniProt Q06418)
[39] = target: WEE2 (human) (UniProt P0C1S8)

PRKG1 (human), sequence (Q13976 whole entry, looked up): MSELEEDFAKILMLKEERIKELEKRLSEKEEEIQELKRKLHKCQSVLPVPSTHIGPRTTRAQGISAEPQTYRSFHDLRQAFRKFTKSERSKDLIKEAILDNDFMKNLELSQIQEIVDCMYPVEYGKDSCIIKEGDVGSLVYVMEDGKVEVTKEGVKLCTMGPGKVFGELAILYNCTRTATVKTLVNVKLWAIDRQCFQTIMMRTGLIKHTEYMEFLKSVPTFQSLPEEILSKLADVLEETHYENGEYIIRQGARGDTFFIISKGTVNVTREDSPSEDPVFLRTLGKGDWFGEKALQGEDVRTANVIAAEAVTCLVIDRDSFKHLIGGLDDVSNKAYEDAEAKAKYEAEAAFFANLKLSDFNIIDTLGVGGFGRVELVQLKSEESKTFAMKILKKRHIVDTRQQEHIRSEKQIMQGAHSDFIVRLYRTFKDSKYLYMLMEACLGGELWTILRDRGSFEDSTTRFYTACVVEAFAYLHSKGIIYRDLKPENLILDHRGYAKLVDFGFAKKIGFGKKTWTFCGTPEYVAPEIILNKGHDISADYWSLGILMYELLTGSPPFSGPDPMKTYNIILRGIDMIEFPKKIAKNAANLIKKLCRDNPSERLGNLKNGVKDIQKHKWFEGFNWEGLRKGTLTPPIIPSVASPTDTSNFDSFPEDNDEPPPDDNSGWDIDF
MAP2K7 (human), sequence (O14733 whole entry, looked up): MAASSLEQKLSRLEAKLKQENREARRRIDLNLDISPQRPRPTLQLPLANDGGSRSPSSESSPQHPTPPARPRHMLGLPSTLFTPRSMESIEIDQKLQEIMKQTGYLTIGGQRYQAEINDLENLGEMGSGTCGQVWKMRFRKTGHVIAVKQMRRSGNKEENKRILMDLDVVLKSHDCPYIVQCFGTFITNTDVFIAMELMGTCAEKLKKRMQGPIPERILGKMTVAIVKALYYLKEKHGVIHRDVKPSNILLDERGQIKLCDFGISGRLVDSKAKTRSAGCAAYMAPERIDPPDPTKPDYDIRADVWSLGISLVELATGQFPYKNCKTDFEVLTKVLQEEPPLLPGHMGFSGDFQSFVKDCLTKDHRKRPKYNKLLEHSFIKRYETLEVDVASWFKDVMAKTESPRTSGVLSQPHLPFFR
TAOK1 (human), sequence (Q7L7X3 whole entry, looked up): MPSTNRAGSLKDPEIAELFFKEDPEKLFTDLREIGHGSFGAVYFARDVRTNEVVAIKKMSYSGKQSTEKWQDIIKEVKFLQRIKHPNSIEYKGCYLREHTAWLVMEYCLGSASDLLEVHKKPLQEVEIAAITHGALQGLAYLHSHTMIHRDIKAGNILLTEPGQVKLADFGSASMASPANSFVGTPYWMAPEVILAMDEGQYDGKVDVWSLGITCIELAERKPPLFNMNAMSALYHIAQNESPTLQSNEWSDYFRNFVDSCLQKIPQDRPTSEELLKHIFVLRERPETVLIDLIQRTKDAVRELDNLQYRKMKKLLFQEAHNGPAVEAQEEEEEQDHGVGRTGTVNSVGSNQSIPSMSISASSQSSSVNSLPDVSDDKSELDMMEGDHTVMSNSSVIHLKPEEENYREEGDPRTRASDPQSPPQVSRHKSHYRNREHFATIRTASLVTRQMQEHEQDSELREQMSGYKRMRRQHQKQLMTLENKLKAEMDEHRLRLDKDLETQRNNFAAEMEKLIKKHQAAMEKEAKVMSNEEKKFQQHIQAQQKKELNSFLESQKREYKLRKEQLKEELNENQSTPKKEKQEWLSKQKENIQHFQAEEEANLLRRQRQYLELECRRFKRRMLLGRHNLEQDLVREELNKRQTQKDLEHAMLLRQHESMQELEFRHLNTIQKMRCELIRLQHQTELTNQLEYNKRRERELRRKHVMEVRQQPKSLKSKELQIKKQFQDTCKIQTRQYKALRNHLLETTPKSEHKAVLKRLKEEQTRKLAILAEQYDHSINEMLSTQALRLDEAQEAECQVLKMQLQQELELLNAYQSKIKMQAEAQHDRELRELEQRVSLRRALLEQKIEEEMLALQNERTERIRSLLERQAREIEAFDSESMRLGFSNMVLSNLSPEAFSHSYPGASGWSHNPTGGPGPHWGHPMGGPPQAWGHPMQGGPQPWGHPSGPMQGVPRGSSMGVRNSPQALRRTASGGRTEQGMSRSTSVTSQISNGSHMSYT
PTK6 (human), sequence (Q13882 whole entry, looked up): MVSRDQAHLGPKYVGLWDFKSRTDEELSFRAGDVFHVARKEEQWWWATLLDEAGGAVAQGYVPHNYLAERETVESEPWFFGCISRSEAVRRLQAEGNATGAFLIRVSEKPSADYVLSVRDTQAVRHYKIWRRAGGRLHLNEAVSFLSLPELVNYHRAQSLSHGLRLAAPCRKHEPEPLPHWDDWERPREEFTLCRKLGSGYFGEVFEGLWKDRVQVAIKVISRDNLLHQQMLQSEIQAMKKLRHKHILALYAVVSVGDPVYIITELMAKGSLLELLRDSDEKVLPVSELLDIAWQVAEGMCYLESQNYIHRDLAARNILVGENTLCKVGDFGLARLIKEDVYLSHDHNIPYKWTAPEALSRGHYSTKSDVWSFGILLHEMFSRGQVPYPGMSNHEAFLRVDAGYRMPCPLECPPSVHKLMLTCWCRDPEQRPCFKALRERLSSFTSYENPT
SIK1 (human), sequence (P57059 whole entry, looked up): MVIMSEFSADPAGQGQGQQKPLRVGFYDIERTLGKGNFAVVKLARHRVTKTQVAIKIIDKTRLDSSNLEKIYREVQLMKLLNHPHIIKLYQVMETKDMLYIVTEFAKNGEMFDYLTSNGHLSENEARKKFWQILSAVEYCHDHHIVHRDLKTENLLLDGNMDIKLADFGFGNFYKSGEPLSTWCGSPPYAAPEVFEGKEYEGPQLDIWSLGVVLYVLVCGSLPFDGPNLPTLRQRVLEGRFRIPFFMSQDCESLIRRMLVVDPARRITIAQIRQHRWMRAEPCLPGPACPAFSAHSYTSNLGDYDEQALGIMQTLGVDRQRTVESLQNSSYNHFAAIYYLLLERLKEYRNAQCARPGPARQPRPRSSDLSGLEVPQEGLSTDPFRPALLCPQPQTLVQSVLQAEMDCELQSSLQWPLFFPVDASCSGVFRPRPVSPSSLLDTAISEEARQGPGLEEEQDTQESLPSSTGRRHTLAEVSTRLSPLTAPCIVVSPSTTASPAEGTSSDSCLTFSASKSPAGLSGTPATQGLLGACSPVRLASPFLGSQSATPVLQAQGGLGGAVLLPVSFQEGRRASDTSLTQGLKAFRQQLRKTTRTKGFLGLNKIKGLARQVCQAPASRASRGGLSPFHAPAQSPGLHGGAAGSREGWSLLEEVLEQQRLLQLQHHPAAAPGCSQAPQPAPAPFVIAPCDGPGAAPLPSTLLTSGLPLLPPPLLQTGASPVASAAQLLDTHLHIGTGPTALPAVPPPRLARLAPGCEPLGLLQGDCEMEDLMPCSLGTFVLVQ
STK32A (human), sequence (Q8WU08 whole entry, looked up): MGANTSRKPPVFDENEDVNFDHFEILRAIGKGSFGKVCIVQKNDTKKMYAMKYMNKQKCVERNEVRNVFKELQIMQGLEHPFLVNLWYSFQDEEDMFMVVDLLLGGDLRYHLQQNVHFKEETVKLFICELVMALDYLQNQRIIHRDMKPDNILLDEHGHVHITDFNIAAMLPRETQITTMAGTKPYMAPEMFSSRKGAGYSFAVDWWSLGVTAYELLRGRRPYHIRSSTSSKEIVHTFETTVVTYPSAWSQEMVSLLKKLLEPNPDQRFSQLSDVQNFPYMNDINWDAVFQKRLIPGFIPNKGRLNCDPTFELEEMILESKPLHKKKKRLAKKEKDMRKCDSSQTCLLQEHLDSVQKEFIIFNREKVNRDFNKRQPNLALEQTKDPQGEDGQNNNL
RPS6KA1 KD2 (human), sequence (Q15418 whole entry, looked up): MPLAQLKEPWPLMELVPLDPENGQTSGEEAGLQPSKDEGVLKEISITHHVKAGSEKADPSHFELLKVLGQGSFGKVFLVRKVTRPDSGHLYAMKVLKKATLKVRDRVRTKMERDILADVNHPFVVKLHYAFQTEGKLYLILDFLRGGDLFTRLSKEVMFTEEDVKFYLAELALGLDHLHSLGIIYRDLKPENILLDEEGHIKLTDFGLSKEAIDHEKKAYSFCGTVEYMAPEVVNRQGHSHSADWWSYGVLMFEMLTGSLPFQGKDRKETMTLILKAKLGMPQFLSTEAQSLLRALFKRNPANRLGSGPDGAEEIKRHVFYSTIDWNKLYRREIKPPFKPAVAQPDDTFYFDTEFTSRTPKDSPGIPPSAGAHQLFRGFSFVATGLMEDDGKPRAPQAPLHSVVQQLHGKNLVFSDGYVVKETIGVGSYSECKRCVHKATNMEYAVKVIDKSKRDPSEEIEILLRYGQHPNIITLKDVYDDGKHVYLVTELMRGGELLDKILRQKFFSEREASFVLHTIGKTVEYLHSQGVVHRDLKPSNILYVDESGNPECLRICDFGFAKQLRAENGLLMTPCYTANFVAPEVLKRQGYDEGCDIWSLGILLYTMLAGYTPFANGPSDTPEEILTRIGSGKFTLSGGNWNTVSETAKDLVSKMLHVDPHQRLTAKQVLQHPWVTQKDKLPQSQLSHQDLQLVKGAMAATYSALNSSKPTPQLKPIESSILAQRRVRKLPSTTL
AURKA (human), sequence (O14965 whole entry, looked up): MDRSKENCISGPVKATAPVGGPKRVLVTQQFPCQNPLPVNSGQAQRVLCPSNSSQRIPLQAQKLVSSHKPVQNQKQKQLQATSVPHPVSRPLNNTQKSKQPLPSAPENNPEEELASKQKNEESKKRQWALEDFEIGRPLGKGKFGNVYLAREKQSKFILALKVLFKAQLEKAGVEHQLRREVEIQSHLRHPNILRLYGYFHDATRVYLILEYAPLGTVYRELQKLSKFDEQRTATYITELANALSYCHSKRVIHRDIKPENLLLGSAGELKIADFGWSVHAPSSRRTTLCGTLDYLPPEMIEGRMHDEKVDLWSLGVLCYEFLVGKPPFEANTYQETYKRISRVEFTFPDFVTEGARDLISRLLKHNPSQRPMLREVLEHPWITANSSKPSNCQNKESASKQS

Question: With `CNc1nc(Nc2ccc(C(=O)N3CCOCC3)cc2OC)ncc1Cl` as the compound, how does the kinase still bound, per cent of control [1] read?
Answer: Its kinase still bound, per cent of control is 100%.

Question: And the kinase still bound, per cent of control [2]?
Answer: Its kinase still bound, per cent of control is 96%.

Question: And the kinase still bound, per cent of control [3]?
Answer: Its kinase still bound, per cent of control is 87%.

Question: What about the kinase still bound, per cent of control [4] of the same compound?
Answer: The kinase still bound, per cent of control was 100%.

Question: What about the residual activity [5] of the same compound?
Answer: Its residual activity is 89%.

Question: And the kinase still bound, per cent of control [6]?
Answer: The kinase still bound, per cent of control was 100%.

Question: What about the kinase still bound, per cent of control [7] of the same compound?
Answer: Its kinase still bound, per cent of control is 100%.

Question: What about the kinase still bound, per cent of control [8] of the same compound?
Answer: Its kinase still bound, per cent of control is 100%.

Question: What about the kinase still bound, per cent of control [9] of the same compound?
Answer: Its kinase still bound, per cent of control is 100%.

Question: And the kinase still bound, per cent of control [10]?
Answer: Its kinase still bound, per cent of control is 100%.

Question: And the kinase still bound, per cent of control [11]?
Answer: The kinase still bound, per cent of control was 100%.

Question: What about the kinase still bound, per cent of control [12] of the same compound?
Answer: Its kinase still bound, per cent of control is 100%.

Question: And the kinase still bound, per cent of control [13]?
Answer: The kinase still bound, per cent of control was 100%.

Question: And the kinase still bound, per cent of control [14]?
Answer: The kinase still bound, per cent of control was 100%.

Question: What about the kinase still bound, per cent of control [15] of the same compound?
Answer: The kinase still bound, per cent of control was 100%.

Question: And the kinase still bound, per cent of control [16]?
Answer: The kinase still bound, per cent of control was 77%.

Question: What about the kinase still bound, per cent of control [17] of the same compound?
Answer: The kinase still bound, per cent of control was 45%.

Question: And the kinase still bound, per cent of control [18]?
Answer: The kinase still bound, per cent of control was 100%.

Question: And the kinase still bound, per cent of control [19]?
Answer: Its kinase still bound, per cent of control is 100%.

Question: What about the kinase still bound, per cent of control [20] of the same compound?
Answer: The kinase still bound, per cent of control was 100%.

Question: And the residual activity [21]?
Answer: The residual activity was 100%.

Question: What about the kinase still bound, per cent of control [22] of the same compound?
Answer: Its kinase still bound, per cent of control is 83%.

Question: What about the kinase still bound, per cent of control [23] of the same compound?
Answer: Its kinase still bound, per cent of control is 82%.

Question: What about the kinase still bound, per cent of control [24] of the same compound?
Answer: Its kinase still bound, per cent of control is 94%.

Question: What about the kinase still bound, per cent of control [25] of the same compound?
Answer: The kinase still bound, per cent of control was 82%.

Question: What about the kinase still bound, per cent of control [26] of the same compound?
Answer: Its kinase still bound, per cent of control is 47%.

Question: What about the kinase still bound, per cent of control [27] of the same compound?
Answer: The kinase still bound, per cent of control was 92%.

Question: And the kinase still bound, per cent of control [28]?
Answer: The kinase still bound, per cent of control was 100%.

Question: And the kinase still bound, per cent of control [29]?
Answer: The kinase still bound, per cent of control was 88%.

Question: What about the kinase still bound, per cent of control [30] of the same compound?
Answer: The kinase still bound, per cent of control was 100%.

Question: What about the kinase still bound, per cent of control [31] of the same compound?
Answer: Its kinase still bound, per cent of control is 90%.

Question: And the kinase still bound, per cent of control [32]?
Answer: Its kinase still bound, per cent of control is 14%.

Question: What about the kinase still bound, per cent of control [33] of the same compound?
Answer: The kinase still bound, per cent of control was 100%.

Question: And the kinase still bound, per cent of control [34]?
Answer: Its kinase still bound, per cent of control is 99%.

Question: What about the kinase still bound, per cent of control [35] of the same compound?
Answer: The kinase still bound, per cent of control was 100%.

Question: And the kinase still bound, per cent of control [36]?
Answer: Its kinase still bound, per cent of control is 100%.

Question: What about the kinase still bound, per cent of control [37] of the same compound?
Answer: The kinase still bound, per cent of control was 100%.

Question: And the kinase still bound, per cent of control [38]?
Answer: Its kinase still bound, per cent of control is 100%.

Question: And the kinase still bound, per cent of control [39]?
Answer: The kinase still bound, per cent of control was 95%.
